Test results from patent US20260234115A1, “LIPID COMPOUNDS, COMPOSITIONS, AND USES THEREOF” (Liberate Bio, Inc., priority 2023, published 2026).
Marks after values point to notes of the source that are not given here.

Test system: mouse organs
Experiment: In vivo activity screening in mice: organ mean total flux (p/s) of luciferase activity after injection of F2 LNP pools (Table 6, FIG. 7A-7C)
Details: luciferase mRNA
Description: Small rodent biodistribution studies were performed in mice (e.g., C57BL/6J, Balb-c, CD-1, etc.). For evaluating LNP biodistribution and tissue activity upon systemic administration, C57BL/6J mice received dose administration by single intravenous injection via tail vein with LNP formulations (individual or pooled) in PBS, at different dose (0.25-3 mg/kg) levels of firefly luciferase mRNA. At predetermined time points (4-6 hours post-injection), the animals were anesthetized via isoflurane and subjected to in-life imaging sessions for bioluminescence using an In Vivo Imaging System (IVIS). All animals were dosed with D-Luciferin at 15 mg/mL via subcutaneous (SC) injection at 0.2 mL/animal. Animals had their abdomen hair shaved using an animal trimmer. They were then placed so their shaved belly faced up toward the IVIS camera. Whole body imaging sessions were performed 10-15 minutes following D-Luciferin administration.
For in detail organ distribution and activity of LNP formulations, ex vivo imaging sessions were also performed. All animals received SC D-Luciferin and were then euthanized by isoflurane overdose, followed by cardiac perfusion with saline. Following perfusion, the organs were collected and subjected to IVIS imaging for luminescence within 10-15 minutes of D-Luciferin injection.
All IVIS images were processed with a computer software to identify the regions of interests for individual organs to detect the total flux (p/s) values as luminescence quantification. Then the total flux values were graphed to evaluate the in vivo activity in each collected organ.
Small rodent biodistribution studies were performed in mice according to the General Study Protocols in Example 3(a). LNPs incorporating lipid compounds were prepared in Formulation F2, with MC3 as lipid compound (Cayman Chemical) prepared using Formulation F2 for comparison. LNP pools (with firefly luciferase mRNA encapsulated) were injected into mice at varying doses, and organ mean total flux (p/s) results (measuring luciferase activity) were then collected according to Example 3(a).
LNPs comprising MC3 used as a control and for cross-mouse comparison. Dose is in mg/kg; LC is Lipid Compound according to Table 1.
Additional screening results for Compounds 7, 13, 14, 26, 33, 38, 39, 40, 48, 60, 61, 89, 103, and 109 in spleen, femur, and muscle are shown in FIG. 7A, FIG. 7B, and FIG. 7C, with MC3 as a used as a control for comparison.

Row | Compound | Organ Mean Total Flux Femur (Mouse 5, dose 0.5 mg/kg) | Organ Mean Total Flux Heart (Mouse 5, dose 0.5 mg/kg) | Organ Mean Total Flux Kidney (Mouse 5, dose 0.5 mg/kg) | Organ Mean Total Flux Liver (Mouse 5, dose 0.5 mg/kg) | Organ Mean Total Flux Lung (Mouse 5, dose 0.5 mg/kg) | Organ Mean Total Flux Muscle (Mouse 5, dose 0.5 mg/kg) | Organ Mean Total Flux Pancreas (Mouse 5, dose 0.5 mg/kg) | Organ Mean Total Flux Spleen (Mouse 5, dose 0.5 mg/kg) | Organ Mean Total Flux Femur (Mouse 11, dose 0.5 mg/kg) | Organ Mean Total Flux Heart (Mouse 11, dose 0.5 mg/kg) | Organ Mean Total Flux Kidney (Mouse 11, dose 0.5 mg/kg) | Organ Mean Total Flux Liver (Mouse 11, dose 0.5 mg/kg) | Organ Mean Total Flux Lung (Mouse 11, dose 0.5 mg/kg) | Organ Mean Total Flux Muscle (Mouse 11, dose 0.5 mg/kg) | Organ Mean Total Flux Pancreas (Mouse 11, dose 0.5 mg/kg) | Organ Mean Total Flux Spleen (Mouse 11, dose 0.5 mg/kg) | other results
1 | CCCCCCCCCC(C)OC(=O)CCCCCCC(=O)OCC(COC(=O)CCCCCCC(=O)OC(C)CCCCCCCCC)(COC(=O)CCCCCCC(=O)OC(C)CCCCCCCCC)COC(=O)CCC(CCCCCC)OC(=O)NCCN1CCCC1 (stereo not shown) [Compound 41, O1-[2,2-bis[[8-(1-methyldecoxy)-8-oxo-octanoyl]oxymethyl]-3-[4-(2-pyrrolidin-1-ylethylcarbamoyloxy)decanoyloxy]propyl]O8-(1-methyldecyl) octanedioate] | 3.8 p/s (×10^6) | 2.2 p/s (×10^6) | 2.8 p/s (×10^6) | 3493 p/s (×10^6) | 18.0 p/s (×10^6) | 10.0 p/s (×10^6) | 0.8 p/s (×10^6) | 2.5 p/s (×10^6) | – | – | – | – | – | – | – | – | –
2 | CCCCCCCCCC(C)OC(=O)CCCCCC(=O)OCC(COC(=O)CCCCCC(=O)OC(C)CCCCCCCCC)(COC(=O)CCCCCC(=O)OC(C)CCCCCCCCC)COC(=O)CCC(CCCCCC)OC(=O)NCCN1CCCC1 (stereo not shown) [Compound 42, O1-[2,2-bis[[7-(1-methyldecoxy)-7-oxo-heptanoyl]oxymethyl]-3-[4-(2-pyrrolidin-1-ylethylcarbamoyloxy)decanoyloxy]propyl]O7-(1-methyldecyl) heptanedioate] | 6.2 p/s (×10^6) | 1.7 p/s (×10^6) | 1.9 p/s (×10^6) | 1778 p/s (×10^6) | 13.4 p/s (×10^6) | 25.8 p/s (×10^6) | 1.8 p/s (×10^6) | 4.5 p/s (×10^6) | – | – | – | – | – | – | – | – | –
3 | CCCC/C=C\CCOC(=O)CCCCCCC(=O)OCC(COC(=O)CCCCCCC(=O)OCC/C=C\CCCC)(COC(=O)CCCCCCC(=O)OCC/C=C\CCCC)COC(=O)CCC(CCCCCC)OC(=O)NCCN1CCCC1 (stereo not shown) [Compound 43, O8-[2,2-bis[[8-[(Z)-oct-3-enoxy]-8-oxo-octanoyl]oxymethyl]-3-[4-(2-pyrrolidin-1-ylethylcarbamoyloxy)decanoyloxy]propyl]O1-[(Z)-oct-3-enyl]octanedioate] | 3.1 p/s (×10^6) | 0.7 p/s (×10^6) | 1.6 p/s (×10^6) | 669.3 p/s (×10^6) | 12.8 p/s (×10^6) | 8.0 p/s (×10^6) | 2.0 p/s (×10^6) | 9.5 p/s (×10^6) | – | – | – | – | – | – | – | – | –
4 | CCCC/C=C\CCOC(=O)CCCCCC(=O)OCC(COC(=O)CCCCCC(=O)OCC/C=C\CCCC)(COC(=O)CCCCCC(=O)OCC/C=C\CCCC)COC(=O)CCC(CCCCCC)OC(=O)NCCN1CCCC1 (stereo not shown) [Compound 44, O7-[2,2-bis[[7-[(Z)-oct-3-enoxy]-7-oxo-heptanoyl]oxymethyl]-3-[4-(2-pyrrolidin-1-ylethylcarbamoyloxy)decanoyloxy]propyl]O1-[(Z)-oct-3-enyl]heptanedioate] | – | – | – | – | – | – | – | – | 5.6 p/s (×10^6) | 0.7 p/s (×10^6) | 1.3 p/s (×10^6) | 415.7 p/s (×10^6) | 6.5 p/s (×10^6) | 22.6 p/s (×10^6) | 3.1 p/s (×10^6) | 36.0 p/s (×10^6) | –
5 | CCCCC/C=C\CCCOC(=O)CCCCCC(=O)OCC(COC(=O)CCCCCC(=O)OCCC/C=C\CCCCC)(COC(=O)CCCCCC(=O)OCCC/C=C\CCCCC)COC(=O)CCC(CCCCCC)OC(=O)NCCN1CCCC1 (stereo not shown) [Compound 45, O7-[2,2-bis[[7-[(Z)-dec-4-enoxy]-7-oxo-heptanoyl]oxymethyl]-3-[4-(2-pyrrolidin-1ylethylcarbamoyloxy)decanoyloxy]propyl]O1-[(Z)-dec-4-enyl]heptanedioate] | – | – | – | – | – | – | – | – | 1.0 p/s (×10^6) | 1.1 p/s (×10^6) | 0.9 p/s (×10^6) | 809.3 p/s (×10^6) | 7.2 p/s (×10^6) | 5.6 p/s (×10^6) | 0.5 p/s (×10^6) | 6.0 p/s (×10^6) | –
6 | CCCCC/C=C\CCCOC(=O)CCCCCCC(=O)OCC(COC(=O)CCCCCCC(=O)OCCC/C=C\CCCCC)(COC(=O)CCCCCCC(=O)OCCC/C=C\CCCCC)COC(=O)CCC(CCCCCC)OC(=O)NCCN1CCCC1 (stereo not shown) [Compound 46, 8,8′-di((Z)-dec-4-en-1-yl) O′1,O1-(2-(((8-(((Z)-dec-4-en-1-yl)oxy)-8-oxooctanoyl)oxy)methyl)-2-(((4-(((2-(pyrrolidin-1-yl)ethyl)carbamoyl)oxy)decanoyl)oxy)methyl)propane-1,3-diyl) di(octanedioate)] | – | – | – | – | – | – | – | – | 1.8 p/s (×10^6) | 4.1 p/s (×10^6) | 2.1 p/s (×10^6) | 3107 p/s (×10^6) | 17.8 p/s (×10^6) | 4.2 p/s (×10^6) | 0.9 p/s (×10^6) | 1.8 p/s (×10^6) | –
7 | CCCCC/C=C\CCCOC(=O)CCCCC(=O)OCC(COC(=O)CCCCC(=O)OCCC/C=C\CCCCC)(COC(=O)CCCCC(=O)OCCC/C=C\CCCCC)COC(=O)CCC(CCCCCC)OC(=O)NCCN1CCCC1 (stereo not shown) [Compound 47, O6-[2,2-bis[[6-[(Z)-dec-4-enoxy]-6-oxo-hexanoyl]oxymethyl]-3-[4-(2-pyrrolidin-1ylethylcarbamoyloxy)decanoyloxy]propyl]O1-[(Z)-dec-4-enyl]hexanedioate] | 15.1 p/s (×10^6) | 1.7 p/s (×10^6) | 2.5 p/s (×10^6) | 974.3 p/s (×10^6) | 25.7 p/s (×10^6) | 62.4 p/s (×10^6) | 4.4 p/s (×10^6) | 67.0 p/s (×10^6) | – | – | – | – | – | – | – | – | –
8 | CCCCC/C=C\CCOC(=O)CCCC(=O)OCC(COC(=O)CCCC(=O)OCC/C=C\CCCCC)(COC(=O)CCCC(=O)OCC/C=C\CCCCC)COC(=O)CCC(CCCCCC)OC(=O)NCCN1CCCC1 (stereo not shown) [Compound 49, O5-[2,2-bis[[5-[(Z)-non-3-enoxy]-5-oxo-pentanoyl]oxymethyl]-3-[4-(2-pyrrolidin-1-ylethylcarbamoyloxy)decanoyloxy]-propyl]O1-[(Z)-non-3-enyl]pentanedioate] | – | – | – | – | – | – | – | – | – | – | – | – | – | – | – | – | Organ Mean Total Flux Femur (Mouse 13, dose 0.5 mg/kg): 10.2 p/s (×10^6); Organ Mean Total Flux Heart (Mouse 13, dose 0.5 mg/kg): 0.5 p/s (×10^6); Organ Mean Total Flux Kidney (Mouse 13, dose 0.5 mg/kg): 1.4 p/s (×10^6); Organ Mean Total Flux Liver (Mouse 13, dose 0.5 mg/kg): 185.5 p/s (×10^6); Organ Mean Total Flux Lung (Mouse 13, dose 0.5 mg/kg): 11.8 p/s (×10^6); Organ Mean Total Flux Muscle (Mouse 13, dose 0.5 mg/kg): 2.9 p/s (×10^6); Organ Mean Total Flux Pancreas (Mouse 13, dose 0.5 mg/kg): 7.5 p/s (×10^6); Organ Mean Total Flux Spleen (Mouse 13, dose 0.5 mg/kg): 57.1 p/s (×10^6)
9 | CCCCCCCCCOC(=O)CCCCC(=O)OCC(COC(=O)CCCCC(=O)OCCCCCCCCC)(COC(=O)CCCCC(=O)OCCCCCCCCC)COC(=O)CCC(CCCCCC)OC(=O)NCCN1CCCC1 (stereo not shown) [Compound 50, O6-[2,2-bis[(6-nonoxy-6-oxo-hexanoyl)oxymethyl]-3-[4-(2-pyrrolidin-1-ylethylcarbamoyloxy)decanoyloxy]propyl]O1-nonyl hexanedioate] | – | – | – | – | – | – | – | – | – | – | – | – | – | – | – | – | Organ Mean Total Flux Femur (Mouse 3, dose 1.0 mg/kg): 3.8 p/s (×10^6); Organ Mean Total Flux Heart (Mouse 3, dose 1.0 mg/kg): 3.1 p/s (×10^6); Organ Mean Total Flux Kidney (Mouse 3, dose 1.0 mg/kg): 2.1 p/s (×10^6); Organ Mean Total Flux Liver (Mouse 3, dose 1.0 mg/kg): 2413 p/s (×10^6); Organ Mean Total Flux Lung (Mouse 3, dose 1.0 mg/kg): 12.1 p/s (×10^6); Organ Mean Total Flux Muscle (Mouse 3, dose 1.0 mg/kg): 3.8 p/s (×10^6); Organ Mean Total Flux Pancreas (Mouse 3, dose 1.0 mg/kg): 8.8 p/s (×10^6); Organ Mean Total Flux Spleen (Mouse 3, dose 1.0 mg/kg): 9.0 p/s (×10^6); Organ Mean Total Flux Femur (Mouse 13, dose 0.5 mg/kg): 1.2 p/s (×10^6); Organ Mean Total Flux Heart (Mouse 13, dose 0.5 mg/kg): 1.0 p/s (×10^6); Organ Mean Total Flux Kidney (Mouse 13, dose 0.5 mg/kg): 0.7 p/s (×10^6); Organ Mean Total Flux Liver (Mouse 13, dose 0.5 mg/kg): 569.7 p/s (×10^6); Organ Mean Total Flux Lung (Mouse 13, dose 0.5 mg/kg): 4.7 p/s (×10^6); Organ Mean Total Flux Muscle (Mouse 13, dose 0.5 mg/kg): 2.3 p/s (×10^6); Organ Mean Total Flux Pancreas (Mouse 13, dose 0.5 mg/kg): 1.5 p/s (×10^6); Organ Mean Total Flux Spleen (Mouse 13, dose 0.5 mg/kg): 4.7 p/s (×10^6)
10 | CCCCCCC(CCCC)COC(=O)CCCCCC(=O)OCC(COC(=O)CCCCCC(=O)OCC(CCCC)CCCCCC)(COC(=O)CCCCCC(=O)OCC(CCCC)CCCCCC)COC(=O)CCC(CCCCCC)OC(=O)NCCN1CCCC1 (stereo not shown) [Compound 51, O7-[2,2-bis[[7-(2-butyloctoxy)-7-oxo-heptanoyl]oxymethyl]-3-[4-(2-pyrrolidin-1ylethylcarbamoyloxy)decanoyloxy]propyl]O1-(2-butyloctyl) heptanedioate] | – | – | – | – | – | – | – | – | – | – | – | – | – | – | – | – | Organ Mean Total Flux Femur (Mouse 3, dose 1.0 mg/kg): 7.5 p/s (×10^6); Organ Mean Total Flux Heart (Mouse 3, dose 1.0 mg/kg): 16.0 p/s (×10^6); Organ Mean Total Flux Kidney (Mouse 3, dose 1.0 mg/kg): 7.2 p/s (×10^6); Organ Mean Total Flux Liver (Mouse 3, dose 1.0 mg/kg): 15467 p/s (×10^6); Organ Mean Total Flux Lung (Mouse 3, dose 1.0 mg/kg): 59.6 p/s (×10^6); Organ Mean Total Flux Muscle (Mouse 3, dose 1.0 mg/kg): 16.5 p/s (×10^6); Organ Mean Total Flux Pancreas (Mouse 3, dose 1.0 mg/kg): 4.9 p/s (×10^6); Organ Mean Total Flux Spleen (Mouse 3, dose 1.0 mg/kg): 9.7 p/s (×10^6)
